Earlier results, collected in PubChem BioAssay AID1259409 (Chemical Carcinogenesis Research Information System (CCRIS), 2018).

Test system: rodent chemically induced tumor inhibition, incidence and multiplicity
Experiment: CCRIS tumor inhibitor studies

In the case of `NCCCC(N)(C(=O)O)C(F)F` (stereo not drawn), the “tumour outcome (control, treated, inhibition, significance)” value (Carcinogen: 1,2-DIMETHYLHYDRAZINE, 540-73-8, Dose [Inhibitor]: 0, 0.2% IN DRINKING WATER BEGINNING 1 D PRIOR TO CARCINOGEN TREATMENT AND CONTINUING FOR DURATION OF STUDY (STUDY DURATI, Route [Inhibitor]: ORAL, Species: RAT, Strain/Sex: SPRAGUE-DAWLEY/MALE, Target Tissue: Type of Lesion: DISTAL COLON: ADENOCARCINOMA, Dose [Carcinogen]: 20 MG/KG 1/WK FOR 20 WK, Promoter: NONE USED) is given as 94%, 67%, 29%, p<0.01, the “tumour outcome (control, treated, inhibition, significance)” value (Carcinogen: 7,12-DIMETHYLBENZ[A]ANTHRACENE, 57-97-6, Dose [Inhibitor]: 0.3 MG IN 0.2 ML ACETONE:ETHANOL:WATER (2:1:1, V/V) 1 HR AFTER EACH PROMOTER DOSE FOR 20 WK (STUDY DURATION: 20 WK), Route [Inhibitor]: DERMAL, Species: MOUSE, Strain/Sex: CD-1/FEMALE, Target Tissue: Type of Lesion: SKIN: PAPILLOMA, Dose [Carcinogen]: 0.2 UMOL IN 0.2 ML ACETONE ONCE, Promoter: 12-O-TETRADECANOYLPHORBOL-13-ACETATE, 16561-29-8) is given as 97%, 61%, 37%, not calculated and the “tumour outcome (control, treated, inhibition, significance)” value (Carcinogen: 7,12-DIMETHYLBENZ[A]ANTHRACENE, 57-97-6, Dose [Inhibitor]: 0.3 MG IN 0.2 ML ACETONE:ETHANOL:WATER (2:1:1,V/V) 1 HR AFTER EACH PROMOTER DOSE FOR 20 WK (STUDY DURATION: 20 WK), Route [Inhibitor]: DERMAL, Species: MOUSE, Strain/Sex: CD-1/FEMALE, Target Tissue: Type of Lesion: SKIN: PAPILLOMA, Dose [Carcinogen]: 0.2 UMOL IN 0.2 ML ACETONE ONCE, Promoter: 12-O-TETRADECANOYLPHORBOL-13-ACETATE, 16561-29-8) is given as 84%, 63%, 25%, not calculated. The “tumour outcome (control, treated, inhibition, significance)” value (Carcinogen: 7,12-DIMETHYLBENZ[A]ANTHRACENE, 57-97-6, Dose [Inhibitor]: 1% (W/V) IN DRINKING WATER 2 D PRIOR TO 1ST PROMOTER DOSE UNTIL THE END OF EXPERIMENT (STUDY DURATION: 20 WK), Route [Inhibitor]: ORAL, Species: MOUSE, Strain/Sex: CD-1/FEMALE, Target Tissue: Type of Lesion: SKIN: PAPILLOMA, Dose [Carcinogen]: 0.2 UMOL IN 0.2 ML ACETONE ONCE, Promoter: 12-O-TETRADECANOYLPHORBOL-13-ACETATE, 16561-29-8) was 100%, 43%, 57%, not calculated, the “tumour outcome (control, treated, inhibition, significance)” value (Carcinogen: 7,12-DIMETHYLBENZ[A]ANTHRACENE, 57-97-6, Dose [Inhibitor]: 2% IN DRINKING WATER (AVERAGE DAILY INTAKE: 8.53 ML/MOUSE/D) FOR 18 WK (STUDY DURATION: 18 WK), Route [Inhibitor]: ORAL, Species: MOUSE, Strain/Sex: SENCAR/FEMALE, Target Tissue: Type of Lesion: SKIN: PAPILLOMA, Dose [Carcinogen]: 10 NMOL ONCE AT 7 WK OF AGE, Promoter: 12-O-TETRADECANOYLPHORBOL-13-ACETATE, 16561-29-8) was 92%, 81%, 12%, not calculated and the “tumour outcome (control, treated, inhibition, significance)” value (Carcinogen: 7,12-DIMETHYLBENZ[A]ANTHRACENE, 57-97-6, Dose [Inhibitor]: 3 MG IN 0.2 ML ACETONE:ETHANOL:WATER (2:1:1, V/V) 1 HR AFTER EACH PROMOTER DOSE FOR 20 WK (STUDY DURATION: 20 WK), Route [Inhibitor]: DERMAL, Species: MOUSE, Strain/Sex: CD-1/FEMALE, Target Tissue: Type of Lesion: SKIN: PAPILLOMA, Dose [Carcinogen]: 0.2 UMOL IN 0.2 ML ACETONE ONCE, Promoter: 12-O-TETRADECANOYLPHORBOL-13-ACETATE, 16561-29-8) was 68%, 47%, 31%, not calculated. The “tumour outcome (control, treated, inhibition, significance)” value (Carcinogen: 7,12-DIMETHYLBENZ[A]ANTHRACENE, 57-97-6, Dose [Inhibitor]: 5 MG, 2 HR PRIOR TO EACH BIWEEKLY PROMOTER DOSE FOR 18 WK (STUDY DURATION: 18 WK), Route [Inhibitor]: INTRAPERITONEAL, Species: MOUSE, Strain/Sex: SENCAR/FEMALE, Target Tissue: Type of Lesion: SKIN: PAPILLOMA, Dose [Carcinogen]: 10 NMOL AT 7 WK OF AGE ONCE 18 WK, Promoter: 12-O-TETRADECANOYLPHORBOL-13-ACETATE, 16561-29-8) was 92%, 77%, 16%, not calculated, the “tumour outcome (control, treated, inhibition, significance)” value (Carcinogen: 7,12-DIMETHYLBENZ[A]ANTHRACENE, 57-97-6, Dose [Inhibitor]: 6 MG IN 0.9% NACL 1 HR AFTER EACH PROMOTER DOSE (STUDY DURATION: 20 WK), Route [Inhibitor]: INTRAPERITONEAL, Species: MOUSE, Strain/Sex: CD-1/FEMALE, Target Tissue: Type of Lesion: SKIN: PAPILLOMA, Dose [Carcinogen]: 0.2 UMOL IN 0.2 ML ACETONE ONCE, Promoter: 12-O-TETRADECANOYLPHORBOL-13-ACETATE, 16561-29-8) was 83%, 63%, 24%, not calculated and the “tumour outcome (control, treated, inhibition, significance)” value (Carcinogen: 7,12-DIMETHYLBENZ[A]ANTHRACENE, 57-97-6, Dose [Inhibitor]: 18 MG IN 0.9% NACL 1 HR AFTER EACH PROMOTER DOSE (STUDY DURATION: 20 WK), Route [Inhibitor]: INTRAPERITONEAL, Species: MOUSE, Strain/Sex: CD-1/FEMALE, Target Tissue: Type of Lesion: SKIN: PAPILLOMA, Dose [Carcinogen]: 0.2 UMOL IN 0.2 ML ACETONE ONCE, Promoter: 12-O-TETRADECANOYLPHORBOL-13-ACETATE, 16561-29-8) was 83%, 60%, 28%, not calculated. For the same compound, the “tumour outcome (control, treated, inhibition, significance)” value (Carcinogen: 7,12-DIMETHYLBENZ[A]ANTHRACENE, 57-97-6, Dose [Inhibitor]: 20 MG 2/WK OR 16 WK TOGETHER WITH EACH MEZEREIN TREATMENT BEGINNING 3 WK POST CARCINOGEN DOSE (STUDY DURATION: 18 WK), Route [Inhibitor]: INTRAPERITONEAL, Species: MOUSE, Strain/Sex: SENCAR/FEMALE, Target Tissue: Type of Lesion: SKIN: PAPILLOMA, Dose [Carcinogen]: 10 NMOL ONCE FOLLOWED ONE WK LATER BY PROMOTER, Promoter: 12-O-TETRADECANOYLPHORBOL-13-ACETATE, 16561-29-8, MEZERIN, 34807-41-5, Promoter: 12-O-TETRADECANOYLPHORBOL-13-ACETATE, 16561-29-8, MEZERIN, 34807-41-5) was 78%, 45%, 42%, not calculated, the “tumour outcome (control, treated, inhibition, significance)” value (Carcinogen: 7,12-DIMETHYLBENZ[A]ANTHRACENE, 57-97-6, Dose [Inhibitor]: 20 MG 2/WK TOGETHER WITH EACH PROMOTER TREATMENT BEGINNING 1 WK POST CARCINOGEN DOSE (STUDY DURATION: 18 WK), Route [Inhibitor]: INTRAPERITONEAL, Species: MOUSE, Strain/Sex: SENCAR/FEMALE, Target Tissue: Type of Lesion: SKIN: PAPILLOMA, Dose [Carcinogen]: 10 NMOL ONCE, Promoter: 12-O-TETRADECANOYLPHORBOL-13-ACETATE, 16561-29-8, MEZERIN, 34807-41-5, Promoter: 12-O-TETRADECANOYLPHORBOL-13-ACETATE, 16561-29-8, MEZERIN, 34807-41-5) was 78%, 78%, 0%, not significant and the “tumour outcome (control, treated, inhibition, significance)” value (Carcinogen: 7,12-DIMETHYLBENZ[A]ANTHRACENE, 57-97-6, Dose [Inhibitor]: 20 MG 2 HR PRIOR TO EACH BIWEEKLY PROMOTER DOSE FOR 18 WK (STUDY DURATION: 18 WK), Route [Inhibitor]: INTRAPERITONEAL, Species: MOUSE, Strain/Sex: SENCAR/FEMALE, Target Tissue: Type of Lesion: SKIN: PAPILLOMA, Dose [Carcinogen]: 10 NMOL ONCE AT 7 WK OF AGE, Promoter: 12-O-TETRADECANOYLPHORBOL-13-ACETATE, 16561-29-8) was 92%, 84%, 9%, not calculated. For the same compound, the “tumour outcome (control, treated, inhibition, significance)” value (Carcinogen: BETA IRRADIATION, Dose [Inhibitor]: 0, 1% IN DRINKING WATER DURING IRRADIATION EXPOSURE (STUDY DURATION: 950 D), Route [Inhibitor]: ORAL, Species: MOUSE, Strain/Sex: ICR/FEMALE, Target Tissue: Type of Lesion: SKIN: TUMOR, Dose [Carcinogen]: 3 GY/MIN 3/WK UNTIL EMERGENCE OF TUMORS, Promoter: NONE USED) was 100%, 100%, 0%, not significant.
